# Results from publication PMC5706701, “Development of a homogenous high-throughput assay for inositol hexakisphosphate kinase 1 activity” (PLoS ONE, 2017).
# Where a name gives a salt, the structure may show the parent alone. Read-outs that look alike come from different tables or passages of the source.
# Target: T1, Human IP6K1 (Homo sapiens, UniProt Q92551)
# T1 construct: GST (N, cleaved yes); made in house; host or cells: C43 E. coli, pGEX-6P-2
# Assay: IP6K1 high-throughput screen of the Sigma LOPAC (ADP-Glo Max, single point);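 also: final compound concentration 10µM in 5% DMSO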
# Format: biochemical
# [1] = LOPAC single-point screen, ADP-Glo Max raw signal per well
# [2] = LOPAC single-point screen, Z-score against plate average and StDev
# [3] = LOPAC single-point screen, Z-score from raw signal with plate average and StDev
# [4] = Sigma LOPAC single-point screen, ADP-Glo Max raw signal per well
# [5] = Sigma LOPAC single-point screen, Z-score from plate average and StDev
# [6] = LOPAC single-point screen, ADP-Glo Max luminescence raw signal per well
# [7] = LOPAC single-point screen, Z-score relative to plate average and StDev
# [8] = LOPAC single-point screen, Z-score from plate average and StDev
# T1 sequence (Q92551 whole entry): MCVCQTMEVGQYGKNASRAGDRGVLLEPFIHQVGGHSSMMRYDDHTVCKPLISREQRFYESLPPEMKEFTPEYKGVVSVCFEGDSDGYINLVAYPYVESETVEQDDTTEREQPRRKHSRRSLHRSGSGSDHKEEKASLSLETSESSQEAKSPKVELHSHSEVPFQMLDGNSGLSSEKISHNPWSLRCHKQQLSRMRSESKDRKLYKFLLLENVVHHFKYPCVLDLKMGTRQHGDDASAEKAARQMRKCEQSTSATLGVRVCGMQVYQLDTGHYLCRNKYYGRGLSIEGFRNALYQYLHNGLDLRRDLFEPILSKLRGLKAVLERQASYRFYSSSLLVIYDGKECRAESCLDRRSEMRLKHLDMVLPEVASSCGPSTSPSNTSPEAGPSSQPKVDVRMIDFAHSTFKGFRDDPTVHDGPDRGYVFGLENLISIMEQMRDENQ
Structure (SMILES),Raw Signal [1],Z-score [3],Raw Signal [6],other results
CCN(CC)C(=O)c1ccc(O)c(OC)c1 [Vanillic acid diethylamide],56150,–,–,Z-score [2]: 0.1996
CN(C)S(=O)(=O)c1ccc2c(c1)/C(=C/c1cc3c([nH]1)CCCC3)C(=O)N2 [SU 6656],57564,–,–,Z-score [2]: 0.2992
O=C1OC(=O)[C@H]2[C@@H]1[C@@H]1CC[C@H]2O1 [Norcantharidin],52142,-0.3783,–,–
N[C@@H]1CON=C1O [D-Cycloserine],55913,-0.3523,–,–
N=C(N)NC(=O)c1nc(Cl)c(N)nc1N [Amiloride hydrochloride],–,–,–,Raw Signal [4]: 63890; Z-score [5]: 1.0527
CSc1nc(N)c2ncn([C@@H]3O[C@H](COP(=O)([O-])OP(=O)([O-])OP(=O)([O-])[O-])[C@@H](O)[C@H]3O)c2n1.[Na+].[Na+].[Na+].[Na+],58230,–,–,Z-score [2]: 0.05581
Br.CO[C@H]1CC=C2CCN3CCC4=C(CC(=O)OC4)[C@]23C1 [Dihydro-beta-erythroidine hydrobromide],–,–,51044,Z-score [7]: -0.8373
O=c1onc2cnc3ccccc3n12 [ODQ],–,–,–,Raw Signal [4]: 60819; Z-score [5]: 1.08
CC(N)C(=O)OC(C)(C)Cc1ccc(Cl)cc1 (centres unmarked) [Alaproclate hydrochloride],–,–,54794,Z-score [7]: -0.5494
"CN1CCCC1c1cccnc1.O=C(O)C(O)C(O)C(=O)O (single isomer, unassigned; (-)) [(-)-Nicotine hydrogen tartrate salt]",–,–,–,Raw Signal: 64466; Z-score: 1.692
Clc1ccc2c(c1)C(N1CCNCC1)=Nc1ccccc1O2 [Amoxapine],–,–,50961,Z-score [7]: -1.224
C=CCN1C[C@H](C)N([C@H](c2ccc(C(=O)N(CC)CC)cc2)c2cccc(OC)c2)C[C@H]1C [SNC80],54916,-0.2152,–,–
CC(=O)O[C@]1(C(C)=O)CC[C@H]2[C@@H]3C=C(Cl)C4=CC(=O)[C@@H]5C[C@@H]5[C@]4(C)[C@H]3CC[C@@]21C [Cyproterone acetate],–,–,–,Raw Signal [4]: 63165; Z-score [5]: 0.925
CC(CCc1ccc(O)cc1)NCCc1ccc(O)c(O)c1 (centres unmarked) [Dobutamine hydrochloride],–,–,52494,Z-score [7]: -0.5429
CC(=O)Oc1ccccc1C(=O)O [Acetylsalicylic acid],–,–,52950,Z-score [7]: -0.8741
CCn1cc(C(=O)O)c(=O)c2ccc(Cc3ccccc3)nc21 [Amfonelic acid],–,-0.107,–,–
"N[C@H](C(=O)O)c1cc(O)cc(O)c1 [(S)-3,5-Dihydroxyphenylglycine]",–,–,63204,Z-score [8]: 1.632
NCCSSCCN [Cystamine dihydrochloride],58178,–,–,Z-score [2]: 0.04666
CN1[C@@H]2CC[C@H]1C[C@@H](OC(=O)C(CO)c1ccccc1)C2 (some centres unmarked) [Atropine sulfate],57358,-0.09777,–,–
O=c1c(-c2ccc(O)cc2)coc2cc(O)ccc12 [Daidzein],–,–,–,Raw Signal [4]: 57311; Z-score [5]: 0.4354
C[C@@H]1OC[C@H](C[N+](C)(C)C)O1.[I-] [(+)-cis-Dioxolane iodide],55108,–,–,Z-score [2]: -0.01199
C=C[C@@]1(C)CC(=O)[C@]2(O)[C@@]3(C)[C@@H](O)CCC(C)(C)[C@@H]3[C@H](O)[C@H](OC(C)=O)[C@@]2(C)O1 [Forskolin],–,–,–,Raw Signal [4]: 61603; Z-score [5]: 1.307
Cc1ccc(S(=O)(=O)NC(=O)NN2CCCCCC2)cc1 [Tolazamide],–,–,64192,Z-score [8]: 1.587
CCCCCCCCCCCCCCCCCC(=O)OC(CC(=O)O)C[N+](C)(C)C.[Cl-] (racemic) [DL-Stearoylcarnitine chloride],55265,-0.1474,–,–
Br.COc1ccc2c(c1)[C@]13CCCC[C@@H]1[C@H](C2)N(C)CC3.O,54296,-0.1769,–,–
"CCCCCCCCCCC/C=C\C(C)(C)/C=C\CCCC(=O)O [7,7-Dimethyl-(5Z,8Z)-eicosadienoic acid]",53422,-0.3544,–,–
C[C@@H]1C(=O)NC2=Nc3cccc(Cl)c3CN21 [Quazinone],53682,-0.455,–,–
CN1C[C@H](C(=O)N[C@]2(C)O[C@@]3(O)[C@@H]4CCCN4C(=O)[C@H](Cc4ccccc4)N3C2=O)C[C@@H]2c3cccc4[nH]cc(c34)C[C@H]21 [Dihydroergotamine methanesulfonate],–,–,48691,Z-score [7]: -1.315
CC(=O)[C@H]1CC[C@H]2[C@@H]3CC=C4C[C@@H](OS(=O)(=O)[O-])CC[C@]4(C)[C@H]3CC[C@]12C.[Na+] [Pregnenolone sulfate sodium],–,–,62981,Z-score [8]: 1.352
CNCC[C@@H](Oc1ccccc1C)c1ccccc1 [Tomoxetine],–,–,–,Raw Signal [4]: 58582; Z-score [5]: 0.497
